According to patent US7271239B2, “D-isomers of antimicrobial peptide” (The Research Foundation of State University of New York, priority 2004, dated 2007):
Values after ≈ are worked out from the molar mass of the structure shown. Where two headings read alike, the source gives them in different places. Where a SMILES comes first, the peptide text is derived from it. Where no end group is shown, it is not given here. [ ]: non-standard residue; d: D form.

Legend:
[1] = system: A. actinomycetemcomitans NCTC 9710; test: microbe, parasite or virus in culture; format: cell-based; settings: for MBC / MIC: Aggregatibacter actinomycetemcomitans, NCTC9710
Text: (§1) The bacteria used in this study included Streptococcus mutans ATCC10449, Streptococcus mutans AU 159, Streptococcus mutans GS-5, Streptococcus mutans GS-5 mutant (^gtf BCD), Streptococcus gordonii Challis, Porphyromonas gingivalis W50, Porphyromonas gingivalis 381, A. actinomycetemcomitans NCTC 9710, Pseudomonas aeruginosa ATCC 17648, and Escherichia coli HB101. One quarter strength (25%) of brain heart infusion broth (BHI, DIFCO Laboratories, Detroit, Mich.) was used for the growth of S. mutans, S. gordonii, A. actinomycetemcomitans, Ps. aeruginosa, and E. coli. For growth of P. gingivalis, tryptic soy broth-yeast extract medium (TSBY, DIFCO Laboratories, Detroit, Mich.) supplemented with cysteine hydrochloride (0.05%), menadione (0.02 μg/ml), hemin (5 μg/ml), and potassium nitrate (0.02%) was used. All bacteria were cultured at 37° C.; Ps. aeruginosa and E. coli were grown aerobically, and the other bacteria, anaerobically. To prepare bacterial cell suspension for antibacterial activity assays, each overnight culture was harvested by centrifuge (3783 g, 10 min), washed once with 10 mM sodium phosphate-buffered saline (PBS, pH 7.2), resuspended in PBS and adjusted to a concentration of 1×10^6 cells/mL.
(§2) MICs of the peptides were determined by broth microdilution method as previously described (5). Briefly, two-fold serial dilutions of each peptide were prepared with 25% BHI medium at a volume of 200 μl per well in 96-well flat-bottom microtiter plates (Costar, Cambridge, Mass.). The final concentration of the peptides ranged from 0.78 to 100 μM, and chlorhexidine (CHX), used as a positive control, from 20 to 0.16 μM (10 to 0.078 μg/mL). The microtiter plate was inoculated with bacterial cell suspension with final concentration of 5×10^6 CFU/mL for P. gingivalis and 5×10^5 CFU/mL for the other bacterial species. After incubation at 37° C. for 48 h, the absorbance was measured at 595 nm by using a microplate reader (Model 3550, Bio-Rad, Japan) to assess the cell growth. […] The MIC value represents the median of at least three independent experiments. The minimal bactericidal concentration (MBC) was determined as follows. Aliquot (100 μl) of cell suspension was taken from two wells above MIC, centrifuged, and washed three times with PBS. Then each cell suspension was plated on TSBY agar plate, and bacterial cells were enumerated after incubation at 37° C. for 48 h. The MBC was defined as the lowest concentration of the peptide at which more than 99.9% of cells were killed compared to non-treated control.

[2] = system: P. gingivalis; test: microbe, parasite or virus in culture; format: cell-based, Porphyromonas gingivalis; settings: for MBC / MIC: Porphyromonas gingivalis
Text: as §1, §2

[3] = system: Ps. aeruginosa ATCC 17648; test: microbe, parasite or virus in culture; format: cell-based, Pseudomonas aeruginosa; settings: for MBC / MIC: Pseudomonas aeruginosa, ATCC17648
Text: as §1, §2

[4] = system: S. mutans GS-5 biofilm; format: cell-based, Streptococcus mutans
Description: FIG. 11. Effect of peptides on the biofilm formation of S. mutans. The bacterial cells (5×10^5 cfu ml^−1) were inoculated in 96-well microtiter plate containing 25% BHIS medium with different concentration of each agent. Culture without agent was used as no treatment control. After incubation at 37° C. for 24 h, absorbance at 595 nm was recorded to assess the cell growth. Biofilm assay was performed by discarding the supernatants, washing with PBS, fixing with methanol, and staining with CV. The absorbance at 570 nm was recorded to assess the amount of biofilm. The activity was expressed as % of control. Data represents mean and SD of two independent tests with duplicates for each. Empty bar: growth, solid bar: biofilm.
The effect of the peptides on S. mutans in biofilm formation was examined by the microdilution method. This method is similar to the MIC assay for planktonic cells. Two-fold serial dilutions of each peptide were prepared in wells of polystyrene microtiter plates (Microtest tissue culture plate, 96 well, Falcon, Becton Dickinson and Company, N.J.) containing 25% BHI medium supplemented with 1% sucrose (BHIS) at a volume of 200 μl per well. The final concentration of the peptide ranged from 0.78 to 100 μM for each peptide. Chlorhexidine (CHX, 0.078 to 10 μg/mL) was used as the positive control, the medium without drug as the non-treated control, and the medium alone as the blank control. The cells suspension of S. mutans GS-5 was prepared as describe in MIC assay and 20 μl aliquot (final concentration of cells 5×10^5 CFU/mL) was inoculated to the wells of polystyrene microtiter plates. After incubation at 37° C. for 20 h, the culture supernatants from each well were decanted and planktonic cells were removed by washing with PBS, pH 7.2. The biofilm was fixed with methanol for 15 min and then air dried at room temperature. The biofilm was then stained with 0.1% (wt/vol) crystal violet (Sigma) for 5 min. and rinsed thoroughly with water until the control wells appeared colorless. Biofilm formation was quantified by the addition of 200 μl of 95% ethanol to each crystal violet-stained well. The plate was rocked at room temperature for 30 min and the absorbance at 595 nm (A595 nm) was determined with a microplate reader (BioRad Model 3550 Microplate Reader). Percentage of inhibition was calculated with the equation: (1−A595 nm of the test/A595nm of non-treated control)×100.

[5] = lowest concentration with 50% or more inhibition of biofilm formation
[6] = median of two strains (W 50, 381)

[H]/N=C(\N/C(=N/[H])NCCCCCCNC(=N)NC(=N)Nc1ccc(Cl)cc1)Nc1ccc(Cl)cc1 [Chlorhexidine, Chlorhexidine digluconate]
MBC ([1]; read-out: MBC): 20 µM
MBC ([1]; read-out: MBC (μg/ml)): 10.1 µg/mL
MIC ([1]; read-out: MIC): 20 µM
MIC ([1]; read-out: MIC (μg/ml)): 10.1 µg/mL
MBC ([2]; median of two strains (W 50, 381), read-out: MBC): 2.5 µM
MBC ([2]; median of two strains (W 50, 381), read-out: MBC (μg/ml)): 1.3 µg/mL
MIC ([2]; median of two strains (W 50, 381), read-out: MIC): 2.5 µM
MIC ([2]; median of two strains (W 50, 381), read-out: MIC (μg/ml)): 1.2 µg/mL
MBC ([3]; read-out: MBC): 10 µM
MBC ([3]; read-out: MBC (μg/ml)): 5.1 µg/mL
MIC ([3]; read-out: MIC): 10 µM
MIC ([3]; read-out: MIC (μg/ml)): 5.1 µg/mL
MBIC50 [4]: 0.625 µg/mL
MBIC50 [4, 5]: 1.25 µM

CC(C)C[C@@H](NC(=O)[C@@H](CS)NC(=O)[C@@H](CCCCN)NC(=O)[C@@H](Cc1ccc(O)cc1)NC(=O)[C@@H](CO)NC(=O)[C@@H](CCCCN)NC(=O)[C@H](N)CCCNC(=N)N)C(=O)N[C@H](Cc1c[nH]cn1)C(=O)N[C@H](CCCCN)C(=O)N[C@H](CCCNC(=N)N)C(=O)N[C@H](CS)C(=O)N[C@H](CCCNC(=N)N)C(=O)O [MUC7 12-mer-D] (H-[dR][dK][dS][dY][dK][dC][dL][dH][dK][dR][dC][dR]-OH; N-terminus and C-terminus assumed)
MBC (μM) ([1]; NCTC 9710): >100 µM
MBC (μg/ml) ([1]; NCTC 9710): >158 µg/mL
MIC (μM) ([1]; NCTC 9710): >100 µM
MIC (μg/ml) ([1]; NCTC 9710): >158 µg/mL
MBC (μM) [2]: 100.0 µM (≈ 158 µg/mL)
MBC (μg/ml) [2]: 79.0 µg/mL (≈ 50.1 µM)
MIC (μM) [2]: 50.0 µM (≈ 78.9 µg/mL)
MBC (μM) ([3]; ATCC 17648): >100 µM
MBC (μg/ml) ([3]; ATCC 17648): >158 µg/mL
MIC (μM) ([3]; ATCC 17648): 100.0 µM (≈ 158 µg/mL)
MBIC50 ([4]; GS-5 biofilm, 24 h): 6.25 µM

CC(C)C[C@H](NC(=O)[C@H](CS)NC(=O)[C@H](CCCCN)NC(=O)[C@H](Cc1ccc(O)cc1)NC(=O)[C@H](CO)NC(=O)[C@H](CCCCN)NC(=O)[C@@H](N)CCCNC(=N)N)C(=O)N[C@@H](Cc1c[nH]cn1)C(=O)N[C@@H](CCCCN)C(=O)N[C@@H](CCCNC(=N)N)C(=O)N[C@@H](CS)C(=O)N[C@@H](CCCNC(=N)N)C(=O)O [MUC7 12-mer-L] (H-RKSYKCLHKRCR-OH; N-terminus and C-terminus assumed)
MBC (μM) ([1]; NCTC 9710): >100 µM
MBC (μg/ml) ([1]; NCTC 9710): >158 µg/mL
MIC (μM) ([1]; NCTC 9710): >100 µM
MIC (μg/ml) ([1]; NCTC 9710): >158 µg/mL
MIC (μM) [2]: >100 µM
MIC (μg/ml) [2]: >158 µg/mL
MBC (μM) ([3]; ATCC 17648): >100 µM
MBC (μg/ml) ([3]; ATCC 17648): >158 µg/mL
MIC (μM) ([3]; ATCC 17648): >100 µM
MIC (μg/ml) ([3]; ATCC 17648): >158 µg/mL
MBIC50 ([4]; GS-5 biofilm, 24 h): 12.5 µM

AKRHHGYKRKFH [Hsn5 12-mer]
MBC (μM) ([1]; NCTC 9710): >100 µM
MBC (μg/ml) ([1]; NCTC 9710): >158 µg/mL
MIC (μM) ([1]; NCTC 9710): >100 µM
MIC (μg/ml) ([1]; NCTC 9710): >158 µg/mL
MIC (μM) [2]: >100 µM
MIC (μg/ml) [2]: >158 µg/mL
MBC (μM) ([3]; ATCC 17648): >100 µM
MBC (μg/ml) ([3]; ATCC 17648): >158 µg/mL
MIC (μM) ([3]; ATCC 17648): >100 µM
MIC (μg/ml) ([3]; ATCC 17648): >158 µg/mL
MBIC50 ([4]; GS-5 biofilm, 24 h): 25 µM

GIGKFLHSAKKFGKAFVGEIMNS [Magainin-II]
MBC (μM) [1]: 50.0 µM
MBC (μg/ml) [1]: 123.5 µg/mL
MIC (μM) [1]: 50.0 µM
MIC (μg/ml) [1]: 123.5 µg/mL
MIC (μM) [2, 6]: >100 µM
MIC (μg/ml) [2, 6]: >246.9 µg/mL
MBC (μM) [3]: 100.0 µM
MBC (μg/ml) [3]: 246.9 µg/mL
MIC (μM) [3]: >100 µM
MIC (μg/ml) [3]: >246.9 µg/mL
MBIC50 [4]: 62 µg/mL
MBIC50 [4, 5]: 25 µM
